{"source": "paper PMC10408569", "about": "“Recruitment of hexahydroquinoline as anticancer scaffold targeting inhibition of wild and mutants EGFR (EGFR^WT, EGFR^T790M, and EGFR^L858R)” (Journal of Enzyme Inhibition and Medicinal Chemistry, 2023)", "key": {"CCRF-CEM": {"tested_on": "CCRF-CEM", "assay": "NCI-60 anticancer screening (SRB)", "type": "cell-based", "settings": "Homo sapiens, leukemia, one dose 10 μM, read-out: Growth Inhibition Percentage (GI %)"}, "HL-60(TB)": {"tested_on": "HL-60(TB)", "assay": "NCI-60 anticancer screening (SRB)", "type": "cell-based", "settings": "Homo sapiens, leukemia, one dose 10 μM, read-out: Growth Inhibition Percentage (GI %)"}, "K-562": {"tested_on": "K-562", "assay": "NCI-60 anticancer screening (SRB)", "type": "cell-based", "settings": "Homo sapiens, K562; K-562, leukemia; one dose 10 μM; read-out: Growth Inhibition Percentage (GI %)"}, "SR": {"tested_on": "SR", "assay": "NCI-60 anticancer screening (SRB)", "type": "cell-based", "settings": "Homo sapiens, leukemia, one dose 10 μM, read-out: Growth Inhibition Percentage (GI %)"}, "NCI-H226": {"tested_on": "NCI-H226", "assay": "NCI-60 anticancer screening (SRB)", "type": "cell-based", "settings": "Homo sapiens; NCI-H226, NSC lung cancer; one dose 10 μM; read-out: Growth Inhibition Percentage (GI %)"}, "NCI-H322M": {"tested_on": "NCI-H322M", "assay": "NCI-60 anticancer screening (SRB)", "type": "cell-based", "settings": "Homo sapiens, NSC lung cancer, one dose 10 μM, read-out: Growth Inhibition Percentage (GI %)"}, "COLO 205": {"tested_on": "COLO 205", "assay": "NCI-60 anticancer screening (SRB)", "type": "cell-based", "settings": "Homo sapiens; COLO 205, colon cancer; one dose 10 μM; read-out: Growth Inhibition Percentage (GI %)"}, "HCT-116": {"tested_on": "HCT-116", "assay": "NCI-60 anticancer screening (SRB)", "type": "cell-based", "settings": "Homo sapiens; HCT-116, colon cancer; one dose 10 μM; read-out: Growth Inhibition Percentage (GI %)"}, "HCT-15": {"tested_on": "HCT-15", "assay": "NCI-60 anticancer screening (SRB)", "type": "cell-based", "settings": "Homo sapiens; HCT-15, colon cancer; one dose 10 μM; read-out: Growth Inhibition Percentage (GI %)"}, "KM 12": {"tested_on": "KM 12", "assay": "NCI-60 anticancer screening (SRB)", "type": "cell-based", "settings": "Homo sapiens, KM12; KM 12, colon cancer; one dose 10 μM; read-out: Growth Inhibition Percentage (GI %)"}, "SW-620": {"tested_on": "SW-620", "assay": "NCI-60 anticancer screening (SRB)", "type": "cell-based", "settings": "Homo sapiens; SW-620, colon cancer; one dose 10 μM; read-out: Growth Inhibition Percentage (GI %)"}, "SF-268": {"tested_on": "SF-268", "assay": "NCI-60 anticancer screening (SRB)", "type": "cell-based", "settings": "Homo sapiens; SF-268, CNS cancer; one dose 10 μM; read-out: Growth Inhibition Percentage (GI %)"}, "SNB-75": {"tested_on": "SNB-75", "assay": "NCI-60 anticancer screening (SRB)", "type": "cell-based", "settings": "Homo sapiens; SNB-75, CNS cancer; one dose 10 μM; read-out: Growth Inhibition Percentage (GI %)"}, "U251": {"tested_on": "U251", "assay": "NCI-60 anticancer screening (SRB)", "type": "cell-based", "settings": "Homo sapiens, U-251; U251, CNS cancer; one dose 10 μM; read-out: Growth Inhibition Percentage (GI %)"}, "LOX IMVI": {"tested_on": "LOX IMVI", "assay": "NCI-60 anticancer screening (SRB)", "type": "cell-based", "settings": "Homo sapiens, melanoma, one dose 10 μM, read-out: Growth Inhibition Percentage (GI %)"}, "M14": {"tested_on": "M14", "assay": "NCI-60 anticancer screening (SRB)", "type": "cell-based", "settings": "Homo sapiens; M14, melanoma; one dose 10 μM; read-out: Growth Inhibition Percentage (GI %)"}, "SK-MEL-2": {"tested_on": "SK-MEL-2", "assay": "NCI-60 anticancer screening (SRB)", "type": "cell-based", "settings": "Homo sapiens; SK-MEL-2, melanoma; one dose 10 μM; read-out: Growth Inhibition Percentage (GI %)"}, "UACC-257": {"tested_on": "UACC-257", "assay": "NCI-60 anticancer screening (SRB)", "type": "cell-based", "settings": "Homo sapiens; UACC-257, melanoma; one dose 10 μM; read-out: Growth Inhibition Percentage (GI %)"}, "IGROV1": {"tested_on": "IGROV1", "assay": "NCI-60 anticancer screening (SRB)", "type": "cell-based", "settings": "Homo sapiens, IGROV-1; IGROV1, ovarian cancer; one dose 10 μM; read-out: Growth Inhibition Percentage (GI %)"}, "OVCAR-5": {"tested_on": "OVCAR-5", "assay": "NCI-60 anticancer screening (SRB)", "type": "cell-based", "settings": "Homo sapiens; OVCAR-5, ovarian cancer; one dose 10 μM; read-out: Growth Inhibition Percentage (GI %)"}, "NCI/ADR-RES": {"tested_on": "NCI/ADR-RES", "assay": "NCI-60 anticancer screening (SRB)", "type": "cell-based", "settings": "Homo sapiens, ovarian cancer, one dose 10 μM, read-out: Growth Inhibition Percentage (GI %)"}, "SK-OV-3": {"tested_on": "SK-OV-3", "assay": "NCI-60 anticancer screening (SRB)", "type": "cell-based", "settings": "Homo sapiens; SK-OV-3, ovarian cancer; one dose 10 μM; read-out: Growth Inhibition Percentage (GI %)"}, "786-0": {"tested_on": "786-0", "assay": "NCI-60 anticancer screening (SRB)", "type": "cell-based", "settings": "Homo sapiens; 786-0, renal cancer; one dose 10 μM; read-out: Growth Inhibition Percentage (GI %)"}, "A498": {"tested_on": "A498", "assay": "NCI-60 anticancer screening (SRB)", "type": "cell-based", "settings": "Homo sapiens; A498, renal cancer; one dose 10 μM; read-out: Growth Inhibition Percentage (GI %)"}, "RXF 393": {"tested_on": "RXF 393", "assay": "NCI-60 anticancer screening (SRB)", "type": "cell-based", "settings": "Homo sapiens; RXF 393, renal cancer; one dose 10 μM; read-out: Growth Inhibition Percentage (GI %)"}, "TK-10": {"tested_on": "TK-10", "assay": "NCI-60 anticancer screening (SRB)", "type": "cell-based", "settings": "Homo sapiens; TK-10, renal cancer; one dose 10 μM; read-out: Growth Inhibition Percentage (GI %)"}, "PC-3": {"tested_on": "PC-3", "assay": "NCI-60 anticancer screening (SRB)", "type": "cell-based", "settings": "Homo sapiens; PC-3, prostate cancer; one dose 10 μM; read-out: Growth Inhibition Percentage (GI %)"}, "MCF7": {"tested_on": "MCF7", "assay": "NCI-60 anticancer screening (SRB)", "type": "cell-based", "settings": "Homo sapiens; MCF7, breast cancer; one dose 10 μM; read-out: Growth Inhibition Percentage (GI %)"}, "MDA-MB-231": {"tested_on": "MDA-MB-231", "assay": "NCI-60 anticancer screening (SRB)", "type": "cell-based", "settings": "Homo sapiens; MDA-MB-231, breast cancer; one dose 10 μM; read-out: Growth Inhibition Percentage (GI %)"}, "BT-549": {"tested_on": "BT-549", "assay": "NCI-60 anticancer screening (SRB)", "type": "cell-based", "settings": "Homo sapiens; BT-549, breast cancer; one dose 10 μM; read-out: Growth Inhibition Percentage (GI %)"}, "T-47D": {"tested_on": "T-47D", "assay": "NCI-60 anticancer screening (SRB)", "type": "cell-based", "settings": "Homo sapiens, T47D, breast cancer, one dose 10 μM, read-out: Growth Inhibition Percentage (GI %)"}, "MDA-MB-468": {"tested_on": "MDA-MB-468", "assay": "NCI-60 anticancer screening (SRB)", "type": "cell-based", "settings": "Homo sapiens; MDA-MB-468, breast cancer; one dose 10 μM; read-out: Growth Inhibition Percentage (GI %)"}, "NCI 60 cancer cell lines": {"tested_on": "NCI 60 cancer cell lines", "assay": "NCI-60 anticancer screening (SRB), whole panel", "type": "cell-based, human", "settings": "mean across the NCI-60 panel; one dose 10 μM"}}}
{"compound": "CCOC(=O)C1=C(N)N(c2ccc(Cl)cc2)C2=C(C(=O)CC(C)(C)C2)C1c1cccnc1", "note": "(racemic) [12f, (±)-Ethyl 2-amino-1–(4-chlorophenyl)-7,7-dimethyl-5-oxo-4-(pyridin-3-yl)-1,4,5,6,7,8-hexahydroquinoline-3-carboxylate]", "values": [{"measurement": "inhibition at 10 µM", "setting": "CCRF-CEM", "result": "< 10", "unit": "%"}, {"measurement": "inhibition at 10 µM", "setting": "HL-60(TB)", "result": "< 10", "unit": "%"}, {"measurement": "inhibition at 10 µM", "setting": "K-562", "result": "< 10", "unit": "%"}, {"measurement": "inhibition at 10 µM", "setting": "SR", "result": "< 10", "unit": "%"}, {"measurement": "inhibition at 10 µM", "setting": "NCI-H226", "result": "< 10", "unit": "%"}, {"measurement": "inhibition at 10 µM", "setting": "NCI-H322M", "result": "< 10", "unit": "%"}, {"measurement": "inhibition at 10 µM", "setting": "COLO 205", "result": "< 10", "unit": "%"}, {"measurement": "inhibition at 10 µM", "setting": "HCT-116", "result": "< 10", "unit": "%"}, {"measurement": "inhibition at 10 µM", "setting": "HCT-15", "result": "< 10", "unit": "%"}, {"measurement": "inhibition at 10 µM", "setting": "KM 12", "result": "< 10", "unit": "%"}, {"measurement": "inhibition at 10 µM", "setting": "SW-620", "result": "< 10", "unit": "%"}, {"measurement": "inhibition at 10 µM", "setting": "SF-268", "result": "< 10", "unit": "%"}, {"measurement": "inhibition at 10 µM", "setting": "SNB-75", "result": 21, "unit": "%"}, {"measurement": "inhibition at 10 µM", "setting": "U251", "result": "< 10", "unit": "%"}, {"measurement": "inhibition at 10 µM", "setting": "LOX IMVI", "result": 12, "unit": "%"}, {"measurement": "inhibition at 10 µM", "setting": "M14", "result": "< 10", "unit": "%"}, {"measurement": "inhibition at 10 µM", "setting": "SK-MEL-2", "result": "< 10", "unit": "%"}, {"measurement": "inhibition at 10 µM", "setting": "UACC-257", "result": "< 10", "unit": "%"}, {"measurement": "inhibition at 10 µM", "setting": "IGROV1", "result": "< 10", "unit": "%"}, {"measurement": "inhibition at 10 µM", "setting": "OVCAR-5", "result": "< 10", "unit": "%"}, {"measurement": "inhibition at 10 µM", "setting": "NCI/ADR-RES", "result": 11, "unit": "%"}, {"measurement": "inhibition at 10 µM", "setting": "SK-OV-3", "result": "< 10", "unit": "%"}, {"measurement": "inhibition at 10 µM", "setting": "786-0", "result": "< 10", "unit": "%"}, {"measurement": "inhibition at 10 µM", "setting": "A498", "result": "< 10", "unit": "%"}, {"measurement": "inhibition at 10 µM", "setting": "RXF 393", "result": "< 10", "unit": "%"}, {"measurement": "inhibition at 10 µM", "setting": "TK-10", "result": "< 10", "unit": "%"}, {"measurement": "inhibition at 10 µM", "setting": "PC-3", "result": "< 10", "unit": "%"}, {"measurement": "inhibition at 10 µM", "setting": "MCF7", "result": "< 10", "unit": "%"}, {"measurement": "inhibition at 10 µM", "setting": "MDA-MB-231", "result": "< 10", "unit": "%"}, {"measurement": "inhibition at 10 µM", "setting": "BT-549", "result": "< 10", "unit": "%"}, {"measurement": "inhibition at 10 µM", "setting": "T-47D", "result": 25, "unit": "%"}, {"measurement": "inhibition at 10 µM", "setting": "MDA-MB-468", "result": "< 10", "unit": "%"}, {"measurement": "GI % mean", "setting": "NCI 60 cancer cell lines", "result": "- ((-) = GI % mean less than 10)"}]}
